From patent publication US20150197497A1, “SELECTIVE INHIBITORS OF HISTONE DEACETYLASE ISOFORM 6 AND METHODS THEREOF” (DANA-FARBER CANCER INSTITUTE, INC., priority 2011, published 2015)

Legend:
HDAC6 = biological target: T1, HDAC6 (Homo sapiens, UniProt Q9UBN7); test: In vitro HDAC enzyme inhibition assay, HDAC6; assay type: biochemical; settings: recombinant full-length HDAC6, substrate MAZ1600 9 μM
T1 construct: Recombinant, full-length HDAC protein (BPS Biosciences) was incubated with fluorophore conjugated substrate; purchased BPS Biosciences
T1 sequence (Q9UBN7 1-1215): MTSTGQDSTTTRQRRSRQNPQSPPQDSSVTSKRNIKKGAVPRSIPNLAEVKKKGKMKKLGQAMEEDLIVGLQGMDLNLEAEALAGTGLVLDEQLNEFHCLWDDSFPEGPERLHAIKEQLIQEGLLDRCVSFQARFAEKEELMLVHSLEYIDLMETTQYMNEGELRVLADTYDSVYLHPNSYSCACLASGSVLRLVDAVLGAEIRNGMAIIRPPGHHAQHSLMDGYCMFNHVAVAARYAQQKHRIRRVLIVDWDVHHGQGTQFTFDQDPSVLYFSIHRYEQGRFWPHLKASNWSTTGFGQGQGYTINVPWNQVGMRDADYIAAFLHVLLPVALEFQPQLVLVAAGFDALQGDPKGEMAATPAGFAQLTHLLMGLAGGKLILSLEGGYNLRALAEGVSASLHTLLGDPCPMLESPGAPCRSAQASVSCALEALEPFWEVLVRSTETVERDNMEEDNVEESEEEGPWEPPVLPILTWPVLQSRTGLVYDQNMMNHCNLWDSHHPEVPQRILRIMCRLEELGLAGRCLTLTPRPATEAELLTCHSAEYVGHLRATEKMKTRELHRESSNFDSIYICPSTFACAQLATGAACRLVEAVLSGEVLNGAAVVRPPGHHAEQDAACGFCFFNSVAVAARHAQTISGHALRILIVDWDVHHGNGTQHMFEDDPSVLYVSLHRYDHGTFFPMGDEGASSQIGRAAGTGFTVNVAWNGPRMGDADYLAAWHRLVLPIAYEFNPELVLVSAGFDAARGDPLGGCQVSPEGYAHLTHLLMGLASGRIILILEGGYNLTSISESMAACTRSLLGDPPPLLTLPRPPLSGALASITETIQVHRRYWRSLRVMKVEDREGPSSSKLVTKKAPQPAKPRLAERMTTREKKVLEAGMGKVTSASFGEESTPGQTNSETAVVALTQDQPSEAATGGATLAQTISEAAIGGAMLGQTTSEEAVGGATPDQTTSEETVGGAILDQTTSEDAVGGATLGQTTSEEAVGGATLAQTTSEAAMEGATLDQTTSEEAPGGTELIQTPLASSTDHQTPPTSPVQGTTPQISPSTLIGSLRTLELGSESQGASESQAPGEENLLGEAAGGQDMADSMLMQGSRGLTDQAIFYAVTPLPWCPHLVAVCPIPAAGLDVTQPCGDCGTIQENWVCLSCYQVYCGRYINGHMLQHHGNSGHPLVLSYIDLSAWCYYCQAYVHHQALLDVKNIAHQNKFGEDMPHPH
Procedure: (§1) In vitro Histone Deacetylase enzyme assays were performed using Class I (isoforms: HDAC1, HDAC2, HDAC3 and HDAC8), class IIa (isoforms: HDAC4, HDAC5, HDAC7 and HDAC9) and class IIb (isoform HDAC6).
(§2) HDAC activities were determined in vitro with an optimized homogenous assay performed in a 384-well plate. Recombinant, full-length HDAC protein (BPS Biosciences) was incubated with fluorophore conjugated substrate, MAZ1600 and MAZ1675, at Km=[S]. […] Reactions were performed in assay buffer (50 mM HEPES, 100 mM KCl, 0.001% Tween-20, 0.05% BSA, 200 μM tris(2-carboxyethyl)phosphine (TCEP), pH 7.4) and followed for fluorogenic release of 7-amino-4-methylcoumarin from substrate upon deacetylase and trypsin enzymatic activity. Fluorescence measurements were obtained every five minutes using a multilabel plate reader and plate-stacker (Envision; Perkin-Elmer). Each plate was analyzed by plate repeat, and the first derivative within the linear range was imported into analytical software (Spotfire DecisionSite and GraphPad Prism). Replicate experimental data from incubations with inhibitor were normalized to controls.

HDAC1 = biological target: T2, HDAC1 (Homo sapiens, UniProt Q13547); test: In vitro HDAC enzyme inhibition assay, HDAC1; assay type: biochemical; settings: for HDAC1/HDAC6 in vitro selectivity: ratio of IC50 for HDAC1 relative to that of HDAC6; for IC50: recombinant full-length HDAC1, substrate MAZ1600 21 μM
T2 construct: Recombinant, full-length HDAC protein (BPS Biosciences) was incubated with fluorophore conjugated substrate; purchased BPS Biosciences
T2 sequence (Q13547 whole entry): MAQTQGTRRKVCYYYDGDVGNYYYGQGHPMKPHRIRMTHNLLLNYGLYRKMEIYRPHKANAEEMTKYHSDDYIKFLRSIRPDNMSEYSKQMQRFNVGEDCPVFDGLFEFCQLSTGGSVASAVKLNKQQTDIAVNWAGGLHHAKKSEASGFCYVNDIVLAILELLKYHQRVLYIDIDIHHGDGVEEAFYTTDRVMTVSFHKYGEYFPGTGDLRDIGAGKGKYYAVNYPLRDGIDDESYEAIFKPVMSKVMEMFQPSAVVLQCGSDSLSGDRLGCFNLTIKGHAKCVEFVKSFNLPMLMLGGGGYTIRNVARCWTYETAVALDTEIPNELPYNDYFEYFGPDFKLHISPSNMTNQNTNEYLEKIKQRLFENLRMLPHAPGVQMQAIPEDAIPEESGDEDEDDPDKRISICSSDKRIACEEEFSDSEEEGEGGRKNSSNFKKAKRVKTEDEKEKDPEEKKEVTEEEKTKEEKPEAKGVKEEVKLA
Procedure: as §1, §2

HDAC5 = biological target: T3, HDAC5 (Homo sapiens, UniProt Q9UQL6); test: In vitro HDAC enzyme inhibition assay, HDAC5; assay type: biochemical; settings: for HDAC5/HDAC6 in vitro selectivity: ratio of IC50 for HDAC5 relative to that of HDAC6; for IC50: recombinant full-length HDAC5, substrate MAZ1675 40 μM; for selectivity toward HDAC6 compared to HDAC5 (in words): tested in vitro
T3 construct: Recombinant, full-length HDAC protein (BPS Biosciences) was incubated with fluorophore conjugated substrate; purchased BPS Biosciences
T3 sequence (Q9UQL6 whole entry): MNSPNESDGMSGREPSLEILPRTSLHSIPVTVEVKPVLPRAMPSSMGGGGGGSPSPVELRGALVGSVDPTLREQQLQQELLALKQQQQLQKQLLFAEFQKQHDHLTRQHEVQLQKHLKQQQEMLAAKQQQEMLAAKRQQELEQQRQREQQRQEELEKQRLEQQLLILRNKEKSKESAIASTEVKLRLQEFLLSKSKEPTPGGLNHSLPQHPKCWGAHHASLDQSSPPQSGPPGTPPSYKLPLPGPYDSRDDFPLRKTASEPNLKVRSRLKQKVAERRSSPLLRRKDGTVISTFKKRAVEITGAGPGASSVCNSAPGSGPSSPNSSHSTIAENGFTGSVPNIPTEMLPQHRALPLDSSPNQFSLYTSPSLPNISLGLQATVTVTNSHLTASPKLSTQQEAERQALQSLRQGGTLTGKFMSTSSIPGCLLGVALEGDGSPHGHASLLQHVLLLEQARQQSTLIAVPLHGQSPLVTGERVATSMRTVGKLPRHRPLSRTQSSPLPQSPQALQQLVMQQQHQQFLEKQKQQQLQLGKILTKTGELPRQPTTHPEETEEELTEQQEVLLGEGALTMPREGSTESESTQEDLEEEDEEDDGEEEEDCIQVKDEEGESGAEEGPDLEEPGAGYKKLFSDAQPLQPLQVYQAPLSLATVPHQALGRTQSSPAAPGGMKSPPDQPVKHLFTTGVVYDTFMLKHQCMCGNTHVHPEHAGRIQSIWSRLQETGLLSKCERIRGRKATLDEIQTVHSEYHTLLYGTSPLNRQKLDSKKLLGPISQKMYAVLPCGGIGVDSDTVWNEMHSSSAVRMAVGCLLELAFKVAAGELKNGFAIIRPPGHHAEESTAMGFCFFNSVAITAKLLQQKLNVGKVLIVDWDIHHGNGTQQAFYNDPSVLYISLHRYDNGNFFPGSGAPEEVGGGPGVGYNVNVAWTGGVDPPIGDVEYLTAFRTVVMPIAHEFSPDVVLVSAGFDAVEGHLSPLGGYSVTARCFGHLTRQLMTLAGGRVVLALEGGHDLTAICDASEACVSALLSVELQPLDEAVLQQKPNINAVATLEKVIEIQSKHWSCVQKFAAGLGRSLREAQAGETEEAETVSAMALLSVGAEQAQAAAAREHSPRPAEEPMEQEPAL
Procedure: as §1, §2

HDAC4 = biological target: T4, HDAC4 (Homo sapiens, UniProt P56524); test: In vitro HDAC enzyme inhibition assay, HDAC4; assay type: biochemical; settings: for HDAC4/HDAC6 in vitro selectivity: ratio of IC50 for HDAC4 relative to that of HDAC6; for IC50: recombinant full-length HDAC4, substrate MAZ1675 10 μM; for selectivity toward HDAC6 compared to HDAC4 (in words): tested in vitro
T4 construct: Recombinant, full-length HDAC protein (BPS Biosciences) was incubated with fluorophore conjugated substrate; purchased BPS Biosciences
T4 sequence (P56524 whole entry): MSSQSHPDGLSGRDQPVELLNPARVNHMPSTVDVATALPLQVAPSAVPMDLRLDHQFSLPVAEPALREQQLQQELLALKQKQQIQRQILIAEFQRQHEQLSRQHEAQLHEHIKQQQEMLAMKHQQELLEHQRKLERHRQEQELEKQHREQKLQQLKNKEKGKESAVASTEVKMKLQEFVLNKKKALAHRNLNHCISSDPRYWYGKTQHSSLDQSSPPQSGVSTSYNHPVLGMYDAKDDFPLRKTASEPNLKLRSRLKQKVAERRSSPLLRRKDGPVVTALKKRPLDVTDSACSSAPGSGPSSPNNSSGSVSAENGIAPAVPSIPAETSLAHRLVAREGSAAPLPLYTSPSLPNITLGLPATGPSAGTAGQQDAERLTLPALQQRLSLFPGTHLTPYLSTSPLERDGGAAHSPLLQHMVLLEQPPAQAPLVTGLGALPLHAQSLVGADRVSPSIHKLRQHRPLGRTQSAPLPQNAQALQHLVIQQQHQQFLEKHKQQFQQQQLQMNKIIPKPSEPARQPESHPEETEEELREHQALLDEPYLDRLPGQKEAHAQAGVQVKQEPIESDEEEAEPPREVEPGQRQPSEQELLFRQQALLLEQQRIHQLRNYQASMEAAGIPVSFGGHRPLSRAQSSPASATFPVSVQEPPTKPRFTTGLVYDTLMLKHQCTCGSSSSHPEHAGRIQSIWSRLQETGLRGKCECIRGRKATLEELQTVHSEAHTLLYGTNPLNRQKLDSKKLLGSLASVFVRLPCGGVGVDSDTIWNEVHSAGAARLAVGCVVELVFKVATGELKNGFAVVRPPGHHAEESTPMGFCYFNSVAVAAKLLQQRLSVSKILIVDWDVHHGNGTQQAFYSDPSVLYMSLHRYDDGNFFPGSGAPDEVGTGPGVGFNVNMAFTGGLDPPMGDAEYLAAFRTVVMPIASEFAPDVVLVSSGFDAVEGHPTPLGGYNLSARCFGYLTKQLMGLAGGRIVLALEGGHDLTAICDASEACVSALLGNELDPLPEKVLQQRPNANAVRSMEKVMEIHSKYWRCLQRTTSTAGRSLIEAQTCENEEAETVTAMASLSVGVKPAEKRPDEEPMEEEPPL
Procedure: as §1, §2

acetylated histones = test: High-content image analysis of induction of acetylated histones in A549 cells; settings: for EC50: Homo sapiens, A549, 8 h, read-out: EC50 for half-maximal induction of acetylated histones (AcHistone)
Procedure: Cells were treated with each test HDACi compound with an automated pin transfer instrument (Janus, Perkin Elmer) and incubated for 8 hours. […] Fixation solution was aspirated and 90 μL of washing solution (0.1% Triton X-100 in PBS) was added prior to 10 minute incubation at 4° C. Washing solution was aspirated and cells were incubated at 4° C. for about 1 hour in blocking solution (0.1% Triton X-100+2% BSA in PBS). Washing solution was aspirated, and cells were incubated for about 1 hour at 4° C. in primary antibody for acetylated-tubulin (Sigma T7451) and acetylated-histone (Cell Signaling #9441L) at a 1:1000 dilution in blocking solution. Primary antibody solution was aspirated, and cells were washed three times in 90 μL of washing solution. […] Secondary antibody and nuclear staining solution was aspirated and cells were washed three times in 90 μL of washing solution. After the third wash, 50 μL of PBS was added to each well. Image acquisition was done on a high content imaging microscope (ImageXpress Micro, Molecular Devices), and image analysis (MetaXpress, Molecular Devices) was performed to obtain average acetylated-tubulin and acetylated-histone signal per cell based on treatment. Replicate experimental data from incubations with inhibitor were normalized to DMSO controls.

Structure (SMILES)	IC50 (HDAC6) [nM]	HDAC1/HDAC6 in vitro selectivity (HDAC1)	IC50 (HDAC1) [nM]	HDAC5/HDAC6 in vitro selectivity (HDAC5)	IC50 (HDAC5) [nM]	HDAC4/HDAC6 in vitro selectivity (HDAC4)	IC50 (HDAC4) [nM]	EC50 (acetylated histones) [nM]	levels of acetylated histone, dose response (in words) (acetylated histones; A549 cells, FIG. 11)	selectivity toward HDAC6 compared to HDAC5 (in words) (HDAC5)	selectivity toward HDAC6 compared to HDAC4 (in words) (HDAC4)
O=C(NO)c1ccc(Cn2c(C(F)(F)F)nc3cc(Cl)ccc32)cc1 [A4, 4-((5-chloro-2-(trifluoromethyl)-1H-benzo[d]imidazol-1-yl)methyl)-N-hydroxybenzamide]	1.16	343	398	246	285	1188	1380	14900	absence of the dose-dependent response		
Cc1ccc2c(c1)nc(C(F)(F)F)n2Cc1ccc(C(=O)NO)cc1 [A2, N-hydroxy-4-((5-methyl-2-(trifluoromethyl)-1H-benzo[d]imidazol-1-yl)methyl)benzamide]	0.306	808	247	537	164	2775	848	242			
O=C(NO)c1ccc(Cn2nnc3cc(Br)ccc32)cc1 [C5, 4-((5-bromo-1H-benzo[d][1,2,3]triazol-1-yl)methyl)-N-hydroxybenzamide]	0.0258	2113	54.5	48751	1260	60319	1560	2300		exceptionally high selectivity (Inhibitors with in vitro selectivity values for HDAC6 of at least 30,000 are considered to have exceptionally high selectivity toward HDAC6)	exceptionally high selectivity (Inhibitors with in vitro selectivity values for HDAC6 of at least 30,000 are considered to have exceptionally high selectivity toward HDAC6)
O=C(NO)c1ccc(Cn2c(C(F)(F)F)nc3cc(F)ccc32)cc1 [A3, 4-((5-fluoro-2-(trifluoromethyl)-1H-benzo[d]imidazol-1-yl)methyl)-N-hydroxybenzamide]	0.574	812	466	486	279	1901	1090	592			
O=C(NO)c1ccc(Cn2cnc3cc(F)ccc32)cc1 [A9, 4-((5-fluoro-1H-benzo[d]imidazol-1-yl)methyl)-N-hydroxybenzamide]	0.0663	2812	186	15350	1020	28751	1910	62.7			
O=C(NO)c1ccc(Cn2cnc3cc(Cl)ccc32)cc1 [A10, 4-((5-chloro-1H-benzo[d]imidazol-1-yl)methyl)-N-hydroxybenzamide]	0.069	1399	96.5	9686	668	21516	1480	900			

Compounds with a lower IC50 (HDAC6), results first:

IC50 (HDAC6) [nM]	HDAC1/HDAC6 in vitro selectivity (HDAC1)	IC50 (HDAC1) [nM]	HDAC5/HDAC6 in vitro selectivity (HDAC5)	IC50 (HDAC5) [nM]	HDAC4/HDAC6 in vitro selectivity (HDAC4)	IC50 (HDAC4) [nM]	EC50 (acetylated histones) [nM]	Structure (SMILES)	levels of acetylated histone, dose response (in words) (acetylated histones; A549 cells, FIG. 11)	selectivity toward HDAC6 compared to HDAC5 (in words) (HDAC5)	selectivity toward HDAC6 compared to HDAC4 (in words) (HDAC4)
0.0205	508	10.4	39409	808	57687	1180	846	O=C(NO)c1ccc(Cn2c(=O)[nH]c3cc(Br)ccc32)cc1 [B5, 4-((5-bromo-2-oxo-2,3-dihydro-1H-benzo[d]imidazol-1-yl)methyl)-N-hydroxybenzamide]		exceptionally high selectivity (Inhibitors with in vitro selectivity values for HDAC6 of at least 30,000 are considered to have exceptionally high selectivity toward HDAC6)	exceptionally high selectivity (Inhibitors with in vitro selectivity values for HDAC6 of at least 30,000 are considered to have exceptionally high selectivity toward HDAC6)
0.016	3996	63.9	59773	956	66860	1070	7140	O=C(NO)c1ccc(Cn2nnc3ccccc32)cc1 [C1, 4-((1H-benzo[d][1,2,3]triazol-1-yl)methyl)-N-hydroxybenzamide]		exceptionally high selectivity (Inhibitors with in vitro selectivity values for HDAC6 of at least 30,000 are considered to have exceptionally high selectivity toward HDAC6)	exceptionally high selectivity (Inhibitors with in vitro selectivity values for HDAC6 of at least 30,000 are considered to have exceptionally high selectivity toward HDAC6)
0.00286	4622	13.2	229909	658	412836	1180	229	Cc1ccc2c(c1)[nH]c(=O)n2Cc1ccc(C(=O)NO)cc1 [B2, N-hydroxy-4-((5-methyl-2-oxo-2,3-dihydro-1H-benzo[d]imidazol-1-yl)methyl)benzamide]		exceptionally high selectivity (Inhibitors with in vitro selectivity values for HDAC6 of at least 30,000 are considered to have exceptionally high selectivity toward HDAC6)	exceptionally high selectivity (Inhibitors with in vitro selectivity values for HDAC6 of at least 30,000 are considered to have exceptionally high selectivity toward HDAC6)
0.0167	1725	28.7	25649	427	93190	1550	1970	O=C(NO)c1ccc(Cn2cnc3cc(Br)ccc32)cc1 [A11, 4-((5-bromo-1H-benzo[d]imidazol-1-yl)methyl)-N-hydroxybenzamide]			exceptionally high selectivity (Inhibitors with in vitro selectivity values for HDAC6 of at least 30,000 are considered to have exceptionally high selectivity toward HDAC6)
0.0145	9665	140	117927	1710	153386	2230	263	O=C(NO)c1ccc(Cn2c(=O)[nH]c3ccccc32)cc1 [B1, N-hydroxy-4-((2-oxo-2,3-dihydro-1H-benzo[d]imidazol-1-yl)methyl)benzamide]		exceptionally high selectivity (Inhibitors with in vitro selectivity values for HDAC6 of at least 30,000 are considered to have exceptionally high selectivity toward HDAC6)	exceptionally high selectivity (Inhibitors with in vitro selectivity values for HDAC6 of at least 30,000 are considered to have exceptionally high selectivity toward HDAC6)
